# Several values for one entry are separate records, joined by “and”; a condition that tells them apart may be missing. Equal values may be shown once.
# Key:
# LhgO = test: Enzymatic assay of LhgO in crude extracts of P. putida KT2440 derivatives grown on different carbon sources (induction of lhgO under LhgR control); type: cell-based, Pseudomonas putida
# Experimental: The cells were harvested at mid-log phase, washed twice and resuspended in phosphate-buffered saline (PBS), then lysed by sonication on ice after the addition of 1 mM phenylmethylsulfonyl fluoride (PMSF). […] Protein concentrations of the supernatants were determined using the Bradford protein assay kit (Sangon, China). […] The 800 μL reaction solution contained 0.1 mM […], 0.05 mM DCPIP, 0.2 mM phenazine methosulfate (PMS) in PBS and 40 μL crude extracts.
# LhgR = test: EMSA, effect of compounds on LhgR binding to the lhgO promoter region F1; parameters: species or system Pseudomonas putida W619; conditions: 50 mM compound, 10 nM F1, 60 nM LhgR
# Experimental: Electrophoretic mobility shift assays (EMSAs) were carried out using the DNA fragment (F1 or F2) and purified LhgR. The DNA fragments were first amplified by primer pairs F1-F/F1-R and F2-F/F2-R, respectively. Then, either fragment at a concentration of 10 nM DNA was incubated with LhgR (0–160 nM) in 20 μL EMSA binding buffer (10 mM Tris-HCl [pH 7.4], 50 mM KCl, 0.5 mM EDTA, 10% [vol/vol] glycerol, and 1 mM dithiothreitol [DTT]). The binding reactions were carried out at 30 °C for 30 min. Electrophoresis was performed on 6% native polyacrylamide gels at 4 °C and 170 V (constant voltage) for about 45 min, followed by staining with SYBR green I (TaKaRa, China) and photographing. Analysis of the interaction between lhgO promoter region (F1) and LHGFR was performed using the same procedure.
# To characterize the effector of LhgR, purified LhgR was first incubated with L-lysine, 5-aminovalerate, glutarate, L-2-HG, D-2-HG, 2-KG, or succinate at 30 °C for 15 min, followed by incubation with the added DNA fragments at 30 °C for 30 min. The mixtures were subsequently subjected to electrophoresis.
# LHGFR0N3C = test: Specificity of purified LHGFR0N3C, emission ratio with 240 μM compounds; type: binding, Pseudomonas putida W619; conditions: 240 μM compound
# LHGFR0N7C = test: Influence of other compounds on the response of purified LHGFR0N7C to L-2-HG; type: binding, Pseudomonas putida W619; conditions: Suppl. Fig. 9b; L-2-HG alone or with the compound; three replicates
# In short: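 Purified L-2-HG biosensors were mixed 3:1 with test compounds in 50 mM Tris-HCl pH 7.4, excited at 430 nm, and the 528 nm (Venus)/485 nm (mTFP) emission was read. Responses were fitted with a Hill model giving apparent Kd and Hill slope.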
# [1] = test system: LHGFR0N7C expressed in E. coli BL21(DE3); test: Specificity of LHGFR0N7C expressed in E. coli BL21(DE3), 1 mM compounds; type: cell-based; conditions: Supplementary Fig. 13c
# Experimental: (§1) To characterize the sensitivity and specificity of LHGFR expressed in E. coli BL21(DE3), 90 μL cell suspensions following 8 h carbon starvation were mixed with 10 μL increasing concentrations of L-2-HG or other compounds, and then added into a black 96-well plate (total 100 μL/per well), the fluorescence intensities were determined using an EnSight microplate reader (PerkinElmer, USA) and the following instrument settings: excitation at 430 nm, emission at 485 nm (mTFP) and 528 nm (Venus), time intervals of 5 min, the temperature at 37 °C, and shake at 180 rpm.
# [2] = test system: LHGFR3N7C expressed in E. coli BL21(DE3); test: Control biosensor LHGFR3N7C expressed in E. coli, response to added compounds; type: cell-based; conditions: Supplementary Fig. 14a
# Experimental: as §1
# [3] = test system: LHGFR0N3C expressed in HEK293FT cells; test: Specificity of LHGFR0N3C expressed in permeabilized HEK293FT cells, 1 mM compounds; type: cell-based, human (HEK293FT cells); conditions: 1 mM compound, cells permeabilized with 10 μM digitonin, normalized to control
# Experimental: (§2) To characterize the sensitivity and specificity of LHGFR expressed in HEK293FT cells, cells were trypsinized 48 h following transfection and suspended in 1× Hank’s balanced salt solution supplemented with 20 mM HEPES. […] Digitonin at a concentration of 10 μM was used to induce cell permeabilization and deplete intracellular L-2-HG for in vivo response curves construction. Then, the fluorescence intensities were determined by a SpectraMax i3 fluorescence plate reader (Molecular Devices, USA) with excitation at 430 nm and emission at 485 nm (mTFP) and 528 nm (Venus). Basal L-2-HG concentration in HEK293FT cells under physiological conditions was determined by substituting the emission ratios of non-permeabilized HEK293FT cells into the calibrated in vivo response curves.
# [4] = test system: LHGFR0N7C expressed in HEK293FT cells; test: Specificity of LHGFR0N7C expressed in permeabilized HEK293FT cells, 1 mM compounds; type: cell-based, human (HEK293FT cells); conditions: Supplementary Fig. 17d; Control about 1
# Experimental: as §2
smiles,measurement,setting,value
"O=C(O)CCCC(=O)O [Glutarate, glutarate]",LhgO activity,LhgO; crude extract of DcsiRDcsiDDlhgO-pME6032-F2-lhgR-F1-lhgO grown with the compound as sole carbon source,no activity of LhgO was detected
same,LhgO activity,LhgO; crude extract of DcsiRDlhgO-pME6032-F2-lhgR-F1-lhgO grown with the compound as sole carbon source,0.02427 and 0.01721 and 0.01877
same,LhgO activity,"LhgO; crude extract of DcsiRDlhgO-pME6032-F2-lhgR-F1-lhgO grown with the compound as sole carbon source, listed as glutarate",activity of LhgO was also detected
same,LhgO activity,LhgO; crude extract of DcsiRDlhgO-pME6032 grown in MSM with the compound as sole carbon source,7.09E-04 and 9.66E-04 and 0.00113
same,Induction of lhgO expression / effector molecule of LhgR,LhgO; gene segment F2-lhgR-F1-lhgO in P. putida KT2440 derivatives,neither D-2-HG nor glutarate can serve as the effector molecule of LhgR
same,Effect on LhgR binding to the lhgO promoter region F1,LhgR,observed only in the presence of L-2-HG
same,Emission ratio,LHGFR0N3C,1.395 and 1.399 and 1.404
same,Induction of emission ratio changes,LHGFR0N3C,None
same,Emission ratio,LHGFR0N7C,2.576 and 2.574 and 2.627
same,normalized emission ratio of biosensor expressed in E. coli,[1]; time 0 min,1.0192 and 1.012 and 1.0143
same,normalized emission ratio of biosensor expressed in E. coli,[1]; time 5 min,1.029 and 1.007 and 0.9939
same,normalized emission ratio of biosensor expressed in E. coli,[1]; time 10 min,1.033 and 1.008 (2×)
same,normalized emission ratio of biosensor expressed in E. coli,[1]; time 15 min,1.028 and 1.024 and 1.005
same,normalized emission ratio of biosensor expressed in E. coli,[1]; time 20 min,1.023 and 1.015 and 1.006
same,normalized emission ratio of biosensor expressed in E. coli,[1]; time 25 min,1.0228 and 1.021 and 1.005
same,normalized emission ratio of biosensor expressed in E. coli,[1]; time 30 min,1.026 and 1.014 and 1.016
same,normalized emission ratio of biosensor expressed in E. coli,[1]; time 35 min,1.019 and 1.016 (2×)
same,normalized emission ratio of biosensor expressed in E. coli,[1]; time 40 min,1.0289 and 1.022 and 1.012
same,normalized emission ratio of biosensor expressed in E. coli,[1]; time 45 min,1.023 and 1.017 and 1.024
same,normalized emission ratio of biosensor expressed in E. coli,[1]; time 50 min,1.027 and 1.014 and 1.019
same,normalized emission ratio of biosensor expressed in E. coli,[1]; time 55 min,1.028 and 1.018 and 1.023
same,normalized emission ratio of biosensor expressed in E. coli,[1]; time 60 min,1.03 and 1.018 and 1.0254
same,normalized emission ratio of biosensor expressed in E. coli,[1]; time 65 min,1.027 and 1.013 and 1.037
same,normalized emission ratio of biosensor expressed in E. coli,[1]; time 70 min,1.027 and 1.018 and 1.0281
same,normalized emission ratio of biosensor expressed in E. coli,[1]; time 75 min,1.034 and 1.022 and 1.035
same,normalized emission ratio of biosensor expressed in E. coli,[1]; time 80 min,1.0287 and 1.026 and 1.039
same,normalized emission ratio of biosensor expressed in E. coli,[1]; time 85 min,1.03 and 1.021 and 1.038
same,normalized emission ratio of biosensor expressed in E. coli,[1]; time 90 min,1.036 and 1.0239 and 1.043
same,normalized emission ratio of control biosensor expressed in E. coli,[2]; time 0 min,1.008 and 0.9954 and 0.9826 and 0.9922
same,normalized emission ratio of control biosensor expressed in E. coli,[2]; time 5 min,1.009 and 0.9959 and 0.9842 and 0.997
same,normalized emission ratio of control biosensor expressed in E. coli,[2]; time 10 min,1.009 and 0.9912 and 0.9859 and 0.9988
same,normalized emission ratio of control biosensor expressed in E. coli,[2]; time 15 min,1.011 and 0.9845 and 0.9854 and 0.993
same,normalized emission ratio of control biosensor expressed in E. coli,[2]; time 20 min,1.001 (2×) and 0.9957 and 0.9921
same,normalized emission ratio of control biosensor expressed in E. coli,[2]; time 25 min,1.004 and 0.9829 and 0.99 and 1.01
same,normalized emission ratio of control biosensor expressed in E. coli,[2]; time 30 min,1.003 and 0.9825 and 0.992 and 1.008
same,normalized emission ratio of control biosensor expressed in E. coli,[2]; time 35 min,1.004 (2×) and 0.9933 and 1.0123
same,normalized emission ratio of control biosensor expressed in E. coli,[2]; time 40 min,1.001 and 1.002 and 0.9991 and 1.015
same,normalized emission ratio of control biosensor expressed in E. coli,[2]; time 45 min,1.004 and 1.003 and 1.002 and 1.015
same,normalized emission ratio of control biosensor expressed in E. coli,[2]; time 50 min,1.007 and 1.003 and 0.9994 and 1.015
same,normalized emission ratio of control biosensor expressed in E. coli,[2]; time 55 min,1.005 and 0.994 and 1.003 and 1.016
same,normalized emission ratio of control biosensor expressed in E. coli,[2]; time 60 min,1.022 and 0.993 and 1.012 and 1.027
same,normalized emission ratio of control biosensor expressed in E. coli,[2]; time 65 min,1.018 and 1.003 and 1.0048 and 1.024
same,normalized emission ratio of control biosensor expressed in E. coli,[2]; time 70 min,1.018 (2×) and 1.011 and 1.029
same,normalized emission ratio of control biosensor expressed in E. coli,[2]; time 75 min,1.029 and 0.9995 and 1.018 and 1.031
same,normalized emission ratio of control biosensor expressed in E. coli,[2]; time 80 min,1.036 and 1.008 and 1.027 and 1.028
same,normalized emission ratio of control biosensor expressed in E. coli,[2]; time 85 min,1.027 and 1.007 and 1.024 and 1.023
same,normalized emission ratio of control biosensor expressed in E. coli,[2]; time 90 min,1.042 and 1.01 and 1.0199 and 1.034
same,Normalized emission ratio,[3],0.9633 and 1.016 and 1.046
same,Normalized emission ratio,[4],0.9993 and 0.9933 and 0.9442
